Consider 59 compounds from patent US8202877B2, “Aminopyrimidinamides as pesticides” (Bayer CropScience AG, priority 2009, dated 2012).

Tested on in the first data set: not listed separately
In words: logP (HCOOH), physicochemical characterization.
Settings: not given
Consider `CCc1ncccc1C(=O)Nc1c(NC2CC2)ncnc1-c1ccc(F)cc1C` [1-180], for which the “logP (HCOOH)” value worked out at 1.10.

As for `CCCc1ncccc1C(=O)Nc1c(NC2CC2)ncnc1-c1ccc(Cn2nc(C(F)(F)F)nc2C(F)(F)F)cc1` [1-264], the “logP (HCOOH)” value is on record as 1.9. Same read-out and setting: in the case of `O=C(Nc1c(NC2CC2)ncnc1-c1ccccc1)c1cccnc1` [1-128] it was 0.63; in that of `O=C(Nc1c(NC2CC2)ncnc1-c1ccc(Cl)cc1)c1c(F)cccc1Cl` [1-263], 2.20; in that of `O=C(Nc1c(NC2CC2)ncnc1-c1ccc(F)cc1)c1ccnn1-c1ccc(F)cc1` [9-1], 1.70. Same read-out and setting: in the case of `CCc1ncccc1C(=O)Nc1c(Br)ncnc1NC1CC1` [3-3] it was 0.84. On the same count and under the same terms, in the case of `Cc1ncccc1C(=O)Nc1c(NC2CC2)ncnc1-c1ccc(F)cc1` [1-1] it was 0.71; in that of `CCc1ncccc1C(=O)Nc1c(NC2CC2)ncnc1-c1ccc(F)cc1Cl` [1-139], 0.79; in that of `O=C(Nc1c(NC2CC2)ncnc1-c1ccc(F)cc1)c1ccnn1-c1ccccc1Cl` [9-3], 1.76. As for `CCOc1ncccc1C(=O)Nc1c(NC2CC2)ncnc1-c1ccc(C#N)cc1` [1-160], the “logP (HCOOH)” value was 1.80. `CCc1ncccc1C(=O)Nc1c(NC2CC2)nc(C)nc1-c1ccccc1` [1-275]: the “logP (HCOOH)” value worked out at 0.76.

Consider `CCc1ncccc1C(=O)Nc1c(NC2CC2)ncnc1-c1ccc(SC(F)(F)F)cc1` [1-114], for which the “logP (HCOOH)” value was found to be 1.4. On to `CCc1ncccc1C(=O)Nc1c(NC2CC2)ncnc1-c1ccc(Cl)cc1C` [1-188], for which the “logP (HCOOH)” value was 1.40. Still for that read-out and setting: in the case of `CCc1ncccc1C(=O)Nc1c(NC2CC2)nc(C)nc1-c1ccc(F)cc1F` [1-278] it was 1; in that of `CCc1ncccc1C(=O)Nc1c(NC2CC2)ncnc1-c1ccccc1C` [1-182], 0.94; in that of `CCc1ncccc1C(=O)Nc1c(NC2CC2)nc(C)nc1-c1ccc(F)cc1` [1-276], 0.88. On the same count and under the same terms, in the case of `CCc1ncccc1C(=O)Nc1c(NC2CC2)ncnc1-c1ccc(C#N)cc1` [1-133] it was 1.10. The same measure, in the same setting: in the case of `O=C(Nc1c(NC2CC2)ncnc1-c1ccc(Cl)cc1)c1ccnn1-c1ccccc1Cl` [9-4] it was 2.05; in that of `O=C(Nc1c(NC2CC2)ncnc1-c1ccc(F)cc1)c1ccnn1-c1ccc(Cl)cc1` [9-2], 2.02.

For the next data set, the system named is Spodoptera litura third instar larvae.
Experiment: not given
Conditions: active compound concentration of 100 ppm; sweet potato leaves immersed; after 7 days.
`CCCc1ncccc1C(=O)Nc1c(NC2CC2)ncnc1-c1ccc(C#N)cc1` [1-246] came in with an insecticidal activity of 100%. Same read-out and setting: in the case of `CCCc1ncccc1C(=O)Nc1c(NC2CC2)ncnc1-c1ccc(Cn2nc(C(F)(F)F)nc2C(F)(F)F)cc1` [1-264] it was 100%. For `CCCc1ncccc1C(=O)Nc1c(NC2CC2)ncnc1-c1ccc(F)cc1` [1-238], the insecticidal activity worked out at 100%. With `CCCc1ncccc1C(=O)Nc1c(NC2CC2)ncnc1-c1ccccc1` [1-237], the insecticidal activity amounted to 100%.

`CCc1ncccc1C(=O)Nc1c(NC2CC2)nc(C(F)(F)F)nc1-c1ccc(F)cc1` [1-313] had an insecticidal activity of 100%. On the same count and under the same terms, in the case of `O=C(Nc1c(NC2CC2)ncnc1-c1ccc(F)cc1)c1cccnc1C1CC1` [1-235] it was 100%. Same read-out and setting: in the case of `O=C(Nc1c(NC2CC2)ncnc1-c1ccc(OC(F)(F)F)cc1)c1cccnc1C1CC1` [1-243] it was 100%; in that of `CCCc1ncccc1C(=O)Nc1c(NC2CC2)ncnc1-c1ccc(F)cc1F` [1-245], 100%. On the same count and under the same terms, in the case of `CCc1ncccc1C(=O)Nc1c(NC2CC2)ncnc1-c1ccc(Cc2n[nH]c(C(F)(F)C(F)(F)C(F)(F)F)n2)cc1` [1-319] it was 100%; in that of `CCCc1ncccc1C(=O)Nc1c(NC2CC2)ncnc1-c1ccc(Cl)cc1` [1-239], 100%; in that of `CCc1ncccc1C(=O)Nc1c(NC2CC2)ncnc1-c1ccc(Cn2ccc(C(F)(F)C(F)(F)C(F)(F)F)n2)cc1` [1-267], 100%.

`O=C(Nc1c(NC2CC2)ncnc1-c1ccc(Cl)cc1)c1cccnc1C1CC1` [1-236]: the insecticidal activity turned out to be 100%. The same measure, in the same setting: in the case of `CCc1ncccc1C(=O)Nc1c(NC2CC2)ncnc1-c1ccc(Oc2cccc(C(F)(F)F)n2)cc1` [1-312] it was 100%; in that of `CCCc1ncccc1C(=O)Nc1c(NC2CC2)ncnc1-c1ccc(Cl)cc1Cl` [1-244], 100%; in that of `CCc1ncccc1C(=O)Nc1c(NC2CC2)nc(C(F)(F)F)nc1-c1ccc(F)cc1F` [1-314], 100%. Still for that read-out and setting: in the case of `CCc1ncccc1C(=O)Nc1c(NC2CC2)ncnc1-c1ccc(Cn2nc(C(F)(F)F)cc2C(F)(F)F)cc1` [1-268] it was 100%; in that of `CCc1ncccc1C(=O)Nc1c(NC2CC2)nc(Cl)nc1-c1ccc(F)cc1` [1-326], 100%. As to `N#Cc1ccc(-c2ncnc(NC3CC3)c2NC(=O)c2cccnc2C2CC2)cc1` [1-242], the insecticidal activity worked out at 100%.

The compound `O=C(Nc1c(NC2CC2)ncnc1-c1ccc(Cl)cc1)c1cccnc1C(F)(F)C(F)(F)F` [1-241] had an insecticidal activity of 100%. The same measure, in the same setting: in the case of `CCc1ncccc1C(=O)Nc1c(NC2CC2)ncnc1-c1ccc(Oc2nc(C(F)(F)F)cc(C(F)(F)C(F)(F)F)n2)cc1` [1-317] it was 100%; in that of `O=C(Nc1c(NC2CC2)nc(C(F)(F)F)nc1-c1ccc(F)cc1)c1cccnc1CC(F)(F)F` [1-324], 100%. Compound `O=C(Nc1c(NC2CC2)nc(Cl)nc1-c1ccc(F)cc1)c1cccnc1CC(F)(F)F` [1-325] registered an insecticidal activity of 100%. On the same count and under the same terms, in the case of `CCc1ncccc1C(=O)Nc1c(NC2CC2)ncnc1-c1ccc(Cc2nc(C(F)(F)C(F)(F)C(F)(F)F)n(C)n2)cc1` [1-318] it was 100%; in that of `CCc1ncccc1C(=O)Nc1c(NC2CC2)ncnc1-c1ccc(Cn2nc(C(F)(F)C(F)(F)F)cc2C(F)(F)F)cc1` [1-247], 100%. Same read-out and setting: in the case of `CCc1ccccc1C(=O)Nc1c(NC2CC2)ncnc1-c1ccc(Cn2cnc(C(F)(F)F)n2)cc1` [1-286] it was 100%. On the same count and under the same terms, in the case of `CCc1ncccc1C(=O)Nc1c(NC2CC2)ncnc1-c1ccc(Cn2ccc(C(F)(F)C(F)(F)F)n2)cc1` [1-266] it was 100%; in that of `CCc1ncccc1C(=O)Nc1c(Cl)ncnc1Nc1ccc(F)cc1` [5-2], 100%. As for `O=C(Nc1c(NC2CC2)ncnc1-c1ccc(F)cc1F)c1cccnc1C1CC1` [1-240], the insecticidal activity amounted to 100%. The same measure, in the same setting: in the case of `O=C(Nc1c(NC2CC2)ncnc1-c1ccc(Cn2nc(C(F)(F)C(F)(F)F)cc2C(F)(F)F)cc1)c1cccnc1C1CC1` [1-253] it was 100%. Still for that read-out and setting: in the case of `CCc1ncccc1C(=O)Nc1c(NC2CC2)ncnc1-c1ccc(Oc2ncccc2C(F)(F)F)cc1` [1-311] it was 100%; in that of `CCc1ccccc1C(=O)Nc1c(NC2CC2)ncnc1-c1ccc(OC(F)(F)F)cc1` [1-257], 100%; in that of `O=C(Nc1c(NC2CC2)ncnc1-c1ccc(Cn2nc(C(F)(F)F)nc2C(F)(F)F)cc1)c1cccnc1C1CC1` [1-259], 100%.

`O=C(Nc1c(NC2CC2)ncnc1-c1ccc(Cn2nc(C(F)(F)F)cc2C(F)(F)F)cc1)c1cccnc1C1CC1` [1-252]: the insecticidal activity came out at 100%. `CCc1ncccc1C(=O)Nc1c(NC2CC2)ncnc1-c1ccc(Cn2nc(C(F)(F)F)nc2C(F)(F)F)cc1` [1-258] yielded an insecticidal activity of 100%.

As for `CCc1ccccc1C(=O)Nc1c(NC2CC2)ncnc1-c1ccc(Cn2nc(C(F)(F)F)nc2C(F)(F)F)cc1` [1-265], the insecticidal activity is on record as 100%. Consider `CCc1ncccc1C(=O)Nc1c(NC2CC2)ncnc1-c1ccc(C(F)(C(F)(F)F)C(F)(F)F)cc1` [1-232], for which the insecticidal activity is given as 100%.

`CCc1ncccc1C(=O)Nc1c(NC2CC2)ncnc1-c1ccc(Oc2ncc(C(F)(F)F)cc2Cl)cc1` [1-310]: the insecticidal activity amounted to 100%. Compound `CCc1ncccc1C(=O)Nc1c(NC2CC2)ncnc1-c1ccc(Cl)cc1` [1-177, N-[4-(4-Chlorophenyl)-6-cyclopropylaminopyrimidin-5-yl]-2-ethylnicotinamide] gave an insecticidal activity of 100%. Regarding `O=C(Nc1c(NC2CC2)ncnc1-c1ccc(F)cc1F)c1cccnc1CC(F)(F)F` [1-254], the insecticidal activity came to 100%.

Turning to `CCc1ncccc1C(=O)Nc1c(NC2CC2)ncnc1-c1ccc(Cn2nc(C(F)(F)C(F)(F)F)cc2C(F)(F)C(F)(F)F)cc1` [1-269], the insecticidal activity is given as 100%. Same read-out and setting: in the case of `O=C(Nc1c(NC2CC2)ncnc1-c1ccccc1)c1cccnc1C1CC1` [1-234] it was 100%.
